Measurements: patent publication US8394789B2, “(Dihydro)pyrrolo[2,1-α]isoquinolines” (MSD Oss B.V., priority 2008, dated 2013)

Experiments:
human FSH receptor = target: T1, human FSH receptor (Homo sapiens, UniProt P23945); assay: hFSHRago (CHO luc): agonistic activity at the human FSH receptor expressed in CHO cells, CRE-luciferase reporter; type: cell-based; conditions: CHO cells stably transfected with human FSH receptor and CRE/luciferase reporter; 4 hours of incubation
T1 construct: expressed in transfected cells
T1 sequence (P23945 18-695): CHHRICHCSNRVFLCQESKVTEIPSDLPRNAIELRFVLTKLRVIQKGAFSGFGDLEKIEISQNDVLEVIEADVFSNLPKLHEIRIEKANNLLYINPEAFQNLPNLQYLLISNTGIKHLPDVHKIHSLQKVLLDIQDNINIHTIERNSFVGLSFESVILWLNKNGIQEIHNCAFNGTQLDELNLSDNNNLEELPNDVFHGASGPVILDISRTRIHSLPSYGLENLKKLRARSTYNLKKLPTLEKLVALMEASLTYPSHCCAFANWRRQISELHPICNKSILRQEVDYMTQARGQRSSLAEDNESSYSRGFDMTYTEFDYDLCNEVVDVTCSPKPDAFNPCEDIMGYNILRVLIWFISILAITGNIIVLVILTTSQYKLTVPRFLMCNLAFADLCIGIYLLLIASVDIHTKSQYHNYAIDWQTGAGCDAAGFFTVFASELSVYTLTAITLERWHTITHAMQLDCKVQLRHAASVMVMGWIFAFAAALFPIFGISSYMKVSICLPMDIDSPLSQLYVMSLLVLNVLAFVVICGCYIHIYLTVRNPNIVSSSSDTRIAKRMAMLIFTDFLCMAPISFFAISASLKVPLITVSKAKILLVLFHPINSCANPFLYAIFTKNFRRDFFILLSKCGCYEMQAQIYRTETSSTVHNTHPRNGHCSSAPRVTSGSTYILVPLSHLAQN
Text: The term EC50 means the concentration of the test compound that elicits half-maximal (50%) stimulation compared to the compound's maximally attainable effect. The values can be determined e.g. in a cell line transfected with a FSH receptor gene and cotransfected with a cAMP responsive element/promoter directing the expression of a reporter gene. Values can be determined using the software program such as MathIQ (version 2.0, ID Business Solutions Limited).
Agonistic activity of the compounds at the human FSH receptor was determined in Chinese Hamster Ovary (CHO) cells stably transfected with the human FSH receptor and cotransfected with a cAMP responsive element (CRE)/promoter directing the expression of a firefly luciferase reporter gene. […] Cells (7,500 cells/well of a 384 well plate) were incubated in Dulbecco' minimal essential F12 modified medium (Invitrogen), supplemented with 1 μg/ml bovine insulin, 5 μg/ml human apo-transferrin, 80 U/ml penicillin G and 80 μg/ml streptomycin with the test compounds (concentration between 0.0316 nM and 10.0 μM) in duplicate in a humidified atmosphere (95%) at 5-7% CO2 and 37° C. The final concentration of DMSO was 1%. After 4 hours of incubation, plates were allowed to adjust to room temperature for 1 hour. Then, Luclite (PerkinElmer) solution was added to the wells and cells were allowed to lyse for at least 1 hour at room temperature. Subsequently, luciferase activity was measured in a luminescence counter. The signal is expressed as counts per second (cps). The EC50 (concentration of the test compound that elicits half-maximal (50%) luciferase stimulation compared to the compound's maximally attainable effect) and efficacy values (maximal effect of the test compound as percentage of the maximal effect of recombinant human FSH) of the compounds were determined using the software program MathIQ (version 2.0, ID Business Solutions Limited).

Compound | EC50 (human FSH receptor) | melting point
COc1cc2c(cc1C(=O)Nc1nncs1)-c1c(-c3cccs3)cc(C(=O)N(C)C(C)(C)C)n1CC2 [Example 123, 8-Methoxy-1-thiophen-2-yl-5,6-dihydro-pyrrolo[2,1-α]isoquinoline-3,9-dicarboxylic acid 3-(tert-butyl-methyl-amide) 9-[1,3,4]thiadiazol-2-ylamide] | 0.001 µM | 149 to 152 °C
COc1cc2c(cc1NC(=O)c1cccnc1)-c1c(-c3cccs3)cc(C(=O)N(C)C(C)(C)C)n1CC2 [Example 102, 8-Methoxy-9-[(pyridine-3-carbonyl)-amino]-1-thiophen-2-yl-5,6-dihydro-pyrrolo[2,1-α]isoquinoline-3-carboxylic acid tert-butyl-methyl-amide] | 0.013 µM | 223 to 224 °C
COc1cccc(Oc2cc3c(cc2OC)CCn2c(C(=O)N(C)C(C)(C)C)cc(-c4cccs4)c2-3)c1 [Example 74, N-tert-butyl-8-methoxy-9-(3-methoxyphenoxy)-N-methyl-1-(thiophen-2-yl)-5,6-dihydropyrrolo[2,1-α]isoquinoline-3-carboxamide] | 0.203 µM | 176 to 177 °C
COc1cc2c(cc1Oc1cccc(F)c1)-c1c(-c3cccs3)cc(C(=O)N(C)C(C)(C)C)n1CC2 [Example 75, 9-(3-Fluoro-phenoxy)-8-methoxy-1-thiophen-2-yl-5,6-dihydro-pyrrolo[2,1-α]isoquinoline-3-carboxylic acid tert-butyl-methyl-amide] | 0.0163 µM | 158 to 159 °C
COc1cc2c(cc1OC(C)C)-c1c(-c3cccs3)cc(C(=O)N(C)C(C)(C)CO)n1CC2 [Example 30, 9-Isopropoxy-8-methoxy-1-thiophen-2-yl-5,6-dihydro-pyrrolo[2,1-α]isoquinoline-3-carboxylic acid (2-hydroxy-1,1-dimethyl-ethyl)-methyl-amide] | 0.001 µM | 150 to 152 °C
